In one assay the test system is B16F10 cells. Briefly: B16F10 cell proliferation assay (alamarBlue). It is filed as cell-based. The settings on record: B16-F10; inhibition of cell proliferation, 96 hours, mouse melanoma cell line. The procedure:
(§1) In accordance with the invention, the ability of the substances to inhibit cell proliferation was determined Cell viability was determined by means of the alamarBlue® reagent (Invitrogen) in a Victor X3 Multilabel Reader (Perkin Elmer). The excitation wavelength was 530 nm and the emission wavelength […].
The B16F10 cells (ATCC, CRL-6475) were sown at a concentration of 300-500 cells/well in 100 μl of growth medium (DMEM with phenol red, 10% FCS) on 96-well microtitre plates.
(§2) After overnight incubation at 37° C., the fluorescence values were determined (CI values). Then the plates were treated with various substance dilutions (1E-5 M, 3E-6 M, 1E-6 M, 3E-7 M, 1E-7 M, 3E-8 M, 1E-8 M) and incubated at 37° C. over 96 hours (MOLM-13, B16F10 cells) or 120 hours (MOLP-8 cells). Subsequently, the fluorescence values were determined (CO values). For the data analysis, the CI values were subtracted from the CO values and the results were compared between cells which had been treated with various dilutions of the substance or only with buffer solution. The IC50 values (substance concentration needed for 50% inhibition of cell proliferation) were calculated therefrom.
B16F10 mouse melanoma cell line
A general note: The colour change of resazurin is a common sign of viable cells or microbes.

Assay [1] has as its target T1, BRD4 Bromo Domain 2 [BRD4(2)] (Homo sapiens, UniProt O60885).
T1 construct: N-terminally His6-tagged BRD4(2) (amino acids 357-445); made in house; host or cells: E. coli
As to the kind of experiment: BRD4(2)/acetylated peptide H4 binding assay (TR-FRET). As to conditions: inhibition of interaction between His6-tagged BRD4(2) (amino acids 357-445) and acetylated histone H4 peptide. The text has this:
Protein-Protein Interaction Assay: BRD4/Acetylated Peptide H4 Binding Assay
2. Assay Description for BRD4 Bromo Domain 2 [BRD4(2)]
To assess the BRD4(2) binding strength of the substances described in this application, the ability thereof to inhibit the interaction between BRD4(2) and acetylated histone H4 in a dose-dependent manner was quantified.
For this purpose, a time-resolved fluorescence resonance energy transfer (TR-FRET) assay was used, which measures the binding between N-terminally His6-tagged BRD4(2) (amino acids 357-445) and a synthetic acetylated histone H4 (Ac-H4) peptide with sequence SGRGK(Ac)GGK(Ac)GLGK(Ac)GGAK(Ac)RHRKVLRDNGSGSK-biotin. The recombinant BRD4(2) protein produced in house according to Filippakopoulos et al., Cell, 2012, 149:214-231 was expressed in E. coli and purified by means of (Ni-NTA) affinity and (Sephadex G-75) size exclusion chromatography. The Ac-H4 peptide can be purchased, for example, from Biosyntan (Berlin, Germany).
In the assay, typically 11 different concentrations of each substance (0.1 nM, 0.33 nM, 1.1 nM, 3.8 nM, 13 nM, 44 nM, 0.15 μM, 0.51 μM, 1.7 μM, 5.9 μM and 20 μM) were analysed as duplicates on the same microtitre plate. For this purpose, 100-fold concentrated solutions in DMSO were prepared by serial dilutions (1:3.4) of a 2 mM stock solution into a clear, 384-well microtitre plate (Greiner Bio-One, Frickenhausen, Germany). From this, 50 nl were transferred into a black test plate (Greiner Bio-One, Frickenhausen, Germany). The test was started by the addition of 2 μl of a 2.5-fold concentrated BRD4(2) solution (final concentration typically 100 nM in the 5 μl of reaction volume) in aqueous assay buffer [50 mM HEPES pH 7.5, 50 mM sodium chloride (NaCl); 50 mM potassium fluoride (KF); 0.25 mM CHAPS and 0.05% serum albumin (BSA)] to the substances in the test plate. This was followed by a 10-minute incubation step at 22° C. for the pre-equilibration of putative complexes between BRD4(2) and the substances.
The mixture was then incubated in the dark at 22° C. for one hour and then at 4° C. for at least 3 hours and for no longer than overnight. The formation of BRD4(2)/Ac-H4 complexes was determined by the measurement of the resonance energy transfer from the streptavidin-Eu chelate to the anti-6His-XL665 antibody present in the reaction. For this purpose, the fluorescence emission was measured at 620 nm and 665 nm after excitation at 330-350 nm in a TR-FRET measuring instrument, for example a Rubystar or Pherastar (both from BMG Lab Technologies, Offenburg, Germany) or a Viewlux (Perkin-Elmer). The ratio of the emissions at 665 nm and at 622 nm was taken as an indicator of the amount of BRD4(2)/Ac-H4 complexes formed.
The data (ratios) obtained were normalized, with 0% inhibition corresponding to the mean from the measurements for a set of controls (typically 32 data points) in which all the reagents were present. In these, in place of test substances, 50 nl of DMSO (100%) were used Inhibition of 100% corresponded to the mean from the measurements for a set of controls (typically 32 data points) in which all the reagents except BRD4(2) were present. The IC50 was determined by regression analysis based on a 4-parameter equation (minimum, maximum, IC50, Hill; Y=max+(min−max)/(1+(X/IC50)Hill)).
For orientation: In TR-FRET formats the signal depends on donor and acceptor labels being close together.

The next assay deals with MOLM-13 cells. Briefly: MOLM-13 cell proliferation assay (alamarBlue). The format is cell-based. As to conditions: inhibition of cell proliferation, 96 hours, human AML cell line. The protocol: as §1
The MOLM-13 cells (DSMZ, ACC 554) were sown at a concentration of 4000 cells/well in 100 μl of growth medium (RPMI1640, 10% FCS) on 96-well microtitre plates.
as §2
MOLM-13 human AML (acute myeloid leukaemia) cell line

Another assay deals with MOLP-8 cells. Briefly: MOLP-8 cell proliferation assay (alamarBlue). The settings on record: inhibition of cell proliferation, 120 hours, human multiple myeloma cell line. It is filed as cell-based. The protocol:
as §1
The MOLP-8 cells (DSMZ, ACC 569) were sown at a concentration of 4000 cells/well in 100 μl of growth medium (RPMI1640, 20% FCS) on 96-well microtitre plates.
as §2
MOLP-8 human multiple myeloma cell line

Molecules are shown by their SMILES. A value given as a limit tells only on which side of the number the result lay.

For `C[C@@H]1C(=O)N(C)c2ccc(Nc3ccc(C(=O)NC4CCN(C)CC4)cc3)cc2N1Cc1c(F)cccc1F` (stereo in doubt) [Example 39, 4-{[4-(2,6-difluorobenzyl)-1,3-dimethyl-2-oxo-1,2,3,4-tetrahydroquinoxalin-6-yl]amino}-N-(1-methylpiperidin-4-yl)benzamide], the half-maximal inhibitory concentration (IC50) – broadly, the concentration that gives 50% inhibition – with B16F10 cells is 3280 nM; in assay [1], 262 nM; in the assay on MOLM-13 cells, 2850 nM; in the assay on MOLP-8 cells, 1740 nM.
The corresponding values for `C[C@@H]1C(=O)N(C)c2ccc(Nc3ccc(C(=O)NC4CCC(N5CCN(CC6CC6)CC5)CC4)cc3)cc2N1Cc1c(F)cccc1F` (stereo in doubt) [Example 40, N-{4-[4-(cyclopropylmethyl)piperazin-1-yl]cyclohexyl}-4-{[4-(2,6-difluorobenzyl)-1,3-dimethyl-2-oxo-1,2,3,4-tetrahydroquinoxalin-6-yl]amino}benzamide] are 4980 nM, 386 nM, greater than 10000 nM and 6620 nM.
The corresponding values for `C[C@@H]1C(=O)N(C)c2ccc(Nc3ccc(C(=O)NC4CCCC4)cc3)cc2N1C1CCCC1` [Example 1, N-cyclopentyl-4-{[(3R)-4-cyclopentyl-1,3-dimethyl-2-oxo-1,2,3,4-tetrahydroquinoxalin-6-yl]amino}benzamide] are 1500 nM, 326 nM, 1160 nM and 1470 nM.
The corresponding values for `C[C@@H]1C(=O)N(C)c2ccc(Nc3ccc(C(=O)NC4CC4)cc3)cc2N1C1CCCC1` [Example 2, 4-{[(3R)-4-cyclopentyl-1,3-dimethyl-2-oxo-1,2,3,4-tetrahydroquinoxalin-6-yl]amino}-N-cyclopropylbenzamide] are 1690 nM, 222 nM, 811 nM and 727 nM.
As for `C[C@@H]1C(=O)N(C)c2ccc(Nc3ccc(S(=O)(=O)N(C)C)cc3)cc2N1C1CCCC1` [Example 3, 4-{[(3R)-4-cyclopentyl-1,3-dimethyl-2-oxo-1,2,3,4-tetrahydroquinoxalin-6-yl]amino}-N,N-dimethylbenzenesulphonamide], the IC50 in the assay on B16F10 cells is 327 nM; in assay [1], 85 nM; in the assay on MOLM-13 cells, 289 nM; in the assay with MOLP-8 cells, 301 nM.
In the case of `C[C@@H]1C(=O)N(C)c2ccc(Nc3ccc(C(=O)N4CCOCC4)cc3)cc2N1C1CCCC1` [Example 6, (3R)-4-cyclopentyl-1,3-dimethyl-6-{[4-(morpholin-4-ylcarbonyl)phenyl]amino}-3,4-dihydroquinoxalin-2(1H)-one], the IC50 was found to be 371 nM with B16F10 cells, 80 nM in assay [1], 698 nM with MOLM-13 cells and 271 nM with MOLP-8 cells.
The corresponding values for `CC(C)NC(=O)c1ccc(Nc2ccc3c(c2)N(C2CCCC2)[C@H](C)C(=O)N3C)cc1` [Example 7, 4-{[(3R)-4-cyclopentyl-1,3-dimethyl-2-oxo-1,2,3,4-tetrahydroquinoxalin-6-yl]amino}-N-isopropylbenzamide] are 1020 nM, 159 nM, 1440 nM and 637 nM.
The corresponding values for `C[C@@H]1C(=O)N(C)c2ccc(Nc3ccc(C(=O)N(C)C)cc3)cc2N1C1CCCC1` [Example 8, 4-{[(3R)-4-cyclopentyl-1,3-dimethyl-2-oxo-1,2,3,4-tetrahydroquinoxalin-6-yl]amino}-N,N-dimethylbenzamide] are 584 nM, 171 nM, 627 nM and 521 nM.
The corresponding values for `C[C@@H]1C(=O)N(C)c2ccc(Nc3ccc(C(=O)NCC4COC4)cc3)cc2N1Cc1ccccc1` [Example 9, 4-{[(3R)-4-benzyl-1,3-dimethyl-2-oxo-1,2,3,4-tetrahydroquinoxalin-6-yl]amino}-N-(oxetan-3-ylmethyl)benzamide] are 365 nM, 62 nM, 366 nM and 139 nM.
Turning to `C[C@@H]1C(=O)N(C)c2ccc(Nc3ccc(C(=O)NC4CC4)cc3)cc2N1Cc1ccccc1` [Example 10, 4-{[(3R)-4-benzyl-1,3-dimethyl-2-oxo-1,2,3,4-tetrahydroquinoxalin-6-yl]amino}-N-cyclopropylbenzamide], the IC50 turned out to be 64 nM in assay [1], 527 nM in the assay with MOLM-13 cells and 260 nM in the assay on MOLP-8 cells.
With `C[C@@H]1C(=O)N(C)c2ccc(Nc3ccc(C(=O)NC4CCN(C)CC4)cc3)cc2N1Cc1ccccc1` [Example 11, 4-{[(3R)-4-benzyl-1,3-dimethyl-2-oxo-1,2,3,4-tetrahydroquinoxalin-6-yl]amino}-N-(1-methylpiperidin-4-yl)benzamide], the half-inhibitory concentration (IC50) turned out to be 768 nM with B16F10 cells, 107 nM in assay [1], 364 nM in the assay with MOLM-13 cells and 102 nM with MOLP-8 cells.
The corresponding values for `C[C@@H]1C(=O)N(C)c2ccc(Nc3ccc(C(=O)N4CCOCC4)cc3)cc2N1Cc1ccccc1` [Example 12, (3R)-4-benzyl-1,3-dimethyl-6-{[4-(morpholin-4-ylcarbonyl)phenyl]amino}-3,4-dihydroquinoxalin-2(1H)-one] are 179 nM, 47 nM, 300 nM and 98 nM.
The corresponding values for `C[C@@H]1C(=O)N(C)c2ccc(Nc3ccc(S(=O)(=O)N4CCOCC4)cc3)cc2N1Cc1ccccc1` [Example 13, (3R)-4-benzyl-1,3-dimethyl-6-{[4-(morpholin-4-ylsulphonyl)phenyl]amino}-3,4-dihydroquinoxalin-2(1H)-one] are 136 nM, 51 nM, 223 nM and 98 nM.
For `C[C@@H]1C(=O)N(C)c2ccc(Nc3ccc(C(=O)NCC4COC4)cc3)cc2N1C1CCCCCC1` [Example 25, 4-{[(3R)-4-cycloheptyl-1,3-dimethyl-2-oxo-1,2,3,4-tetrahydroquinoxalin-6-yl]amino}-N-(oxetan-3-ylmethyl)benzamide], the values for the half-inhibitory concentration (IC50) (in assay [1]; in the assay with MOLM-13 cells; in the assay with MOLP-8 cells) were 357 nM, 1360 nM and 1360 nM, respectively.

The record behind these values is US20150344444A1, “BET-PROTEIN-INHIBITING DIHYDROXYQUINOXALINONES” (BAYER PHARMA AKTIENGESELLSCHAFT, priority 2012, published 2015).
